The values that follow come from US4910194A, “Thienotriazolodiazepine compounds and pharmaceutical uses thereof” (Yoshitomi Pharmaceutical Industries, Ltd., priority 1988, dated 1990).

One assay relates to PAF. As to conditions: literature; cited from earlier work.
In another assay the test system is PAF-induced lethal shock. In words: Effect on PAF-induced lethal shock in mice. It counts as in vivo. Particulars: Mus musculus; male ICR mice, oral 1 hour before 80 μg/kg PAF i.v., survival over 24 hours; read-out: ED50 (p.o.), PAF-induced lethal shock. The method, then: The experiment was carried out according to the method of Young et al. described in Prostaglandins, Vol. 30, p. 545 (1985). Groups of 9 to 15 male ICR mice (Charles River) weighing 25-30 g were used. 80 μg/kg of PAF (Serdary Research Lab.) solution was intravenously administered in a lateral tail vein 1 hour after the oral administration of test compound (0.1 ml/10 g). […] The ED50 (mg/kg, p.o.) of the compound of Example 2 was 0.01 mg/kg.

The subject of assay [1] is PAF-induced platelet aggregation. In words: Inhibitory effect on platelet aggregation in rabbits (ex vivo test). As to conditions: Oryctolagus cuniculus, po, rabbit, 1 mg/kg orally, 24 hours, read-out: percentage of inhibition of platelet aggregation at 24 hours after oral administration. On the procedure:
Test compound (1 mg/kg) was orally administered to rabbit instead of adding it to PRP as in vitro test of Experiment 1, and then the citrated blood samples (9 volumes of blood+1 volume of 3.8% sodium citrate) were collected with the passage of time. Then, the blood samples were employed to determine the inhibitory effect on platelet aggregation according to Experiment 1. The percentage of inhibition at 24 hours after the oral administration of the compound of Example 2 was 100%.

For assay [2] the test system is unchanged. The assay is described as follows: Inhibitory effect on platelet aggregation in rabbits (in vitro test). It is filed as cell-based. Particulars: Oryctolagus cuniculus, rabbit PRP, PAF 1.8×10^-7 M, 37° C., read-out: Inhibition of PAF-induced platelet aggregation, IC50. The method, then:
Blood samples to which was added 0.1 volume of 3.8% sodium citrate were collected from rabbits. Platelet rich plasma (PRP) was prepared by centrifuging the blood sample at 200×g for 10 minutes, and platelet poor plasma (PPP) was prepared by centrifuging the remaining blood sample at 1000×g for 10 minutes.
Aggregation ability was measured with a turbidimetric device (6-channel NKK Hematracer 1, model PAT-6A) according to the method of G. V. R. Born described in J. Physiology, vol. 168, p. 178 (1963). The aggregometer was adjusted in sensitivity to give light transmission values of 0 and 100% for PRP and PPP, respectively. With stirring at 1000 rpm, 0.3 μl of test compound solution or vehicle was added to 0.3 ml of PRP. After the mixture was kept at 37° C. for 2 minutes, to the mixture was added 3 μl PAF (Serdary Research Lab.) at the final concentration of 1.8×10^-7 M and the light transmission was recorded for 5 minutes.
In all experiments, PAF was dissolved in ethanol at the concentration of 100 μg/ml, and, when used, diluted with 0.9% saline solution.
The inhibition percentage of test compounds on platelet aggregation were calculated from the following formula by measuring the maximal light transmission in the presence and absence of the test compounds. [formula]
IC50 (μg/ml, concentration of 50% inhibition) was graphically determined.

In brackets after ≈: the same amount, converted by molar mass.

With `Cc1nnc2n1-c1sc(CCC(=O)N3CCOCC3)cc1C(c1ccccc1Cl)=NC2` [4-(2-chlorophenyl)-9-methyl-6H-thieno-[3,2-f][1,2,4]triazolo[4,3-a][1,4]diazepine-2-propionic acid morpholide], the “antagonistic activity on PAF” value with PAF was “exhibit antagonistic activity on PAF”.
For the molecule `CCc1cc2c(s1)-n1c(C)nnc1CN=C2c1ccccc1Cl` [Etizolam, 6-(o-chlorophenyl)-8-ethyl-1-methyl-4H-s-triazolo[3,4-c]thieno[2,3-e][1,4]diazepine], in the assay on PAF, the “antagonistic activity on PAF” value is “exhibits antagonistic activity on PAF”.
`Cc1nnc2n1-c1sc(CCc3ccc(C(O)C(C)C)cc3)cc1C(c1ccccc1Cl)=NC2C` (stereo not drawn) [Example 2, 4-(2-chlorophenyl)-2-[2-(4-(1-hydroxy-2-methylpropyl)phenyl)ethyl]-6,9-dimethyl-6H-thieno-[3,2-f][1,2,4]triazolo[4,3-a][1,4]diazepine]: the ED50 in the assay on PAF-induced lethal shock was found to be 0.01 mg/kg. Further, in assay [1], the inhibition at 1 mg/kg is 100%. The IC50 in assay [2] lay within 0.01 to 0.03 µg/mL (≈ 0.0198 to 0.0594 µM).
Take `Cc1nnc2n1-c1sc(CCc3ccc(CC(C)(C)O)cc3)cc1C(c1ccccc1Cl)=NC2C` (stereo not drawn) [Example 3, 4-(2-chlorophenyl)-2-[2-(4-(2-hydroxy-2-methylpropyl)phenyl)ethyl]-6,9-dimethyl-6H-thieno[3,2-f][1,2,4]triazolo[4,3-a][1,4]diazepine]: the IC50 in assay [2] lay within 0.01 to 0.03 µg/mL (≈ 0.0198 to 0.0594 µM).
Regarding `Cc1nnc2n1-c1sc(CCc3ccc(CC(C)CO)cc3)cc1C(c1ccccc1Cl)=NC2C` (stereo not drawn) [Example 4, 4-(2-chlorophenyl)-2-[2-(4-(3-hydroxy-2-methylpropyl)phenyl)ethyl]-6,9-dimethyl-6H-thieno[3,2-f][1,2,4]triazolo[4,3-a][1,4]diazepine], the IC50 in assay [2] lay within 0.03 to 0.1 µg/mL (≈ 0.0594 to 0.198 µM).
For `Cc1nnc2n1-c1sc(CCc3ccc(C(=O)C(C)(C)O)cc3)cc1C(c1ccccc1Cl)=NC2C` (stereo not drawn) [Example 5, 4-(2-chlorophenyl)-2-[2-(4-(2-hydroxy-2-methylpropionyl)phenyl)ethyl]-6,9-dimethyl-6H-thieno[3,2-f][1,2,4]triazolo[4,3-a][1,4]diazepine], the IC50 in assay [2] lay in the range of 0.01 to 0.03 µg/mL (≈ 0.0193 to 0.0578 µM).
Regarding `Cc1nnc2n1-c1sc(CCc3ccc(C(O)C(C)(C)O)cc3)cc1C(c1ccccc1Cl)=NC2C` (stereo not drawn) [Example 6, 4-(2-chlorophenyl)-2-[2-(4-(1,2-dihydroxy-2-methylpropyl)phenyl)ethyl]-6,9-dimethyl-6H-thieno[3,2-f][1,2,4]triazolo[4,3-a][1,4]diazepine], the IC50 in assay [2] fell in the range of 0.03 to 0.1 µg/mL (≈ 0.0576 to 0.192 µM).
